Active and inactive are the calls of the source. No cut-off for these calls is given here. Where only a bound is given, the exact number is not on record here.

As a reminder, the EC50 is the concentration at which the effect is half-maximal. What is called inhibition is the percentage by which the read-out fell short of the control. The Ki is the dissociation constant of the complex between target and ligand, obtained from inhibition or displacement. One may read the Emax as the maximal effect, on the per cent scale that the assay sets.

Test [1] has as its target T1, Cannabinoid receptor 2 (Homo sapiens, UniProt P34972). Description: Agonist activity at human CB2 receptor expressed in CHO cells after 30 mins by [35S]-GTPgammaS binding assay relative to control.
Test [2] has as its target T1, Cannabinoid receptor 2. Kind of test: Displacement of [3H]CP55940 from human CB2 receptor expressed in HEK293 EBNA cells at 40 uM after 90 mins by liquid scintillation spectrophotometer. The class given is cell-based. (In general: Loss of bound radioactivity is the signal in a displacement assay; it reports binding, not function.)
Test [3] addresses T1, Cannabinoid receptor 2. Description: Displacement of [3H]CP55940 from human CB2 receptor expressed in HEK293 EBNA cells after 90 mins by liquid scintillation spectrophotometer. The class given is cell-based.
The target of test [4] is Cannabinoid receptor 1 (Homo sapiens, UniProt P21554). Description: Displacement of [3H]CP55940 from human CB1 receptor expressed in HEK293 EBNA cells after 90 mins by liquid scintillation spectrophotometer. The class given is cell-based.
Cannabinoid receptor 1, sequence (P21554 whole entry): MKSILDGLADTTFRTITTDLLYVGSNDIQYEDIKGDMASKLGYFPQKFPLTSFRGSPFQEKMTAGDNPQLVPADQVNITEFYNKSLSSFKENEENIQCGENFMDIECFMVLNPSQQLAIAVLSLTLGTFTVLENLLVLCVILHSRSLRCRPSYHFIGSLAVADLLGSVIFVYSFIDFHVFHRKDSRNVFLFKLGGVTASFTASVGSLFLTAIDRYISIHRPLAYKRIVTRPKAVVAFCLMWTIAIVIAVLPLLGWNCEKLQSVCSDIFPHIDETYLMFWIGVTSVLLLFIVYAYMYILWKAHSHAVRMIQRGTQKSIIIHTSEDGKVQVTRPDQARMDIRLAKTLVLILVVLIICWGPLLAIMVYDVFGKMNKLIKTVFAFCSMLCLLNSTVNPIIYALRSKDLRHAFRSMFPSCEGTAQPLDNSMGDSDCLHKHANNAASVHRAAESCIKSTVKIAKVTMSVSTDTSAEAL
The target in test [5] is T2, G-protein coupled receptor 55 (Homo sapiens, UniProt Q9Y2T6). Description: Antagonist activity at recombinant human GPR55 expressed in HEK293 cells assessed as LPI mediated receptor activation by measuring LPI Emax at 1 uM after 5 mins by xCELLigence assay (reference value: 99 to 104%). It is filed as cell-based.
T2 sequence (Q9Y2T6 whole entry): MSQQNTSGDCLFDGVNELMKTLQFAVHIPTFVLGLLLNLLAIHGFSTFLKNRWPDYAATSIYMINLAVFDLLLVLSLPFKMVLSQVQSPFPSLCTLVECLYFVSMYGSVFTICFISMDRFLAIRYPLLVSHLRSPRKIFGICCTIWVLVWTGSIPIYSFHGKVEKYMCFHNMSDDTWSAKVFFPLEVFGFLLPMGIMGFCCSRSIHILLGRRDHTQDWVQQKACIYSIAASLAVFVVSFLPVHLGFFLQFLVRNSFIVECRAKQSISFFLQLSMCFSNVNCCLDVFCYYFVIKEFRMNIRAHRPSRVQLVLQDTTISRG
Test [6] concerns HEK293. Kind of test: Effect on non-transfected HEK293 cells at 1 nM to 10 uM after 5 mins by xCELLigence assay. It is filed as functional, cell-based. Conditions: Homo sapiens.
Test [7] has as its target T2, G-protein coupled receptor 55. Kind of test: Partial agonist activity at recombinant human GPR55 expressed in HEK293 cells at 1 uM after 5 mins by xCELLigence assay relative to LPI. The class given is cell-based.
The target is the same in test [8]. Description: Agonist activity at recombinant human GPR55 expressed in HEK293 cells at 1 uM after 5 mins by xCELLigence assay relative to LPI. The class given is cell-based.
Test [9] shares this target. Description: Agonist activity at recombinant human GPR55 expressed in HEK293 cells after 5 mins by xCELLigence assay. The class given is cell-based.
The test system of test [10] is HEK293. Kind of test: Effect on non-transfected HEK293 cells at 10 uM after 5 mins by xCELLigence assay. It is filed as functional, cell-based. Conditions: Homo sapiens.
The target in test [11] is T2, G-protein coupled receptor 55. Kind of test: Partial agonist activity at recombinant human GPR55 expressed in HEK293 cells after 5 mins by xCELLigence assay. The class given is cell-based.

T1 sequence (P34972 whole entry): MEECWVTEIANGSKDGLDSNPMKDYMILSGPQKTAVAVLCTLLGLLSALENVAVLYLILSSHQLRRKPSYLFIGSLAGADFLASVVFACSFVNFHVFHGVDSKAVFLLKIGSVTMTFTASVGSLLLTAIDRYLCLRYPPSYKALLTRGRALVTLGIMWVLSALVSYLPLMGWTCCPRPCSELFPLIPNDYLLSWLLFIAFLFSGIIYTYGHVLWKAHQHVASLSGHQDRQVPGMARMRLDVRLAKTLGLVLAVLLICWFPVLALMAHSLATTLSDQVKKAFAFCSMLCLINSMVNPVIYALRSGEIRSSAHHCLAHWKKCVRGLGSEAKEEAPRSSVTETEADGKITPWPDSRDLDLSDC

`COc1ccc2c(c1)OC(C)(C)c1cn(CCN3CCN(C(=O)c4cccs4)CC3)nc1-2` returned an EC50 in [1] of 0.392 µM. Besides, the inhibition in [2] amounted to 70%. The Ki in [3] is 0.0154 µM; in test [4], greater than 40 µM. Also, the Emax in test [5] was found to be 96%; in test [7], 45%. Further, the result in test [6] was inactive.

As to `COc1ccc2c(c1)OC(C)(C)c1cnn(CCN3CCN(C(=O)c4ccco4)CC3)c1-2`, the Emax in test [8] is less than 25%; in test [5], 97%. This compound also showed an inhibitory constant (Ki) in test [4] greater than 40 µM. The outcome in [6] was inactive.

In test [4], `COc1ccc2c(c1)OC(C)(C)c1cnn(CCN3CCN(C(=O)c4ccccc4)CC3)c1-2` gave an inhibition constant Ki greater than 40 µM.

`COc1ccc2c(c1)OC(C)(C)c1cn(CCN3CCN(C(=O)C4CCCCC4)CC3)nc1-2` gave an inhibition in [2] of 70%. In addition, the Ki was 0.523 µM in test [3] and greater than 40 µM in test [4]. Also, the results for the Emax in [5] and in test [7] were 99% and 47%, respectively. Further, the result in test [6] was inactive.

As to `COc1ccc2c(c1)OC(C)(C)c1cnn(CNC(=O)CN3CCN(c4ccccc4OC)CC3)c1-2`, the inhibition constant (Ki) in [3] and in [4] was greater than 40 µM in each case. The outcome in test [9] was inactive.

On to `COc1ccc2c(c1)OC(C)(C)c1cn(CNC(=O)CN3CCN(c4cccc(C)c4C)CC3)nc1-2`, for which the Emax in test [8] was less than 25%; in test [5], 102%. Moreover, the Ki in [3] and in [4] was greater than 40 µM throughout. The result in test [6] and in test [9] was inactive.

Regarding `COc1ccc2c(c1)OC(C)(C)c1cnn(CNC(=O)CN3CCN(c4ccccc4)CC3)c1-2`, the inhibition in test [2] turned out to be 70%. Also, the Emax in test [8] was less than 25%; in test [5] it was 97%. Besides, the Ki was 4.92 µM in test [3] and greater than 40 µM in test [4]. Also, the outcome in [6] and in test [9] was inactive.

In the case of `COc1ccc(N2CCN(CC(=O)NCn3ncc4c3-c3ccc(OC)cc3OC4(C)C)CC2)cc1`, the Emax in test [8] is less than 25%; in test [5], 80%. The Ki in test [3] and in [4] was greater than 40 µM in each case. The result in test [6] and in test [9] was inactive.

Turning to `CCCCCCCCCCCCCCCCCC(=O)OC[C@@H](O)COP(=O)(O)O[C@@H]1[C@H](O)[C@H](O)[C@@H](O)[C@H](O)[C@H]1O`, the EC50 in test [9] turned out to be 0.00282 µM. Further, the result in test [10] was Active.

On to `COc1ccc2c(c1)OC(C)(C)c1cn(CCN3CCN(C(=O)c4ccccc4)CC3)nc1-2`, for which, in [2], the inhibition was 70%. The Ki is 3.6 µM in [3] and greater than 40 µM in [4]. In test [11], the half-maximal effective concentration (EC50) amounted to 0.0006 µM. Further, the Emax came to 105% in test [5] and 51% in test [7]. Also, the outcome in [6] was inactive.

In test [2], `COc1ccc2c(c1)OC(C)(C)c1cn(CCN3CCN(C(=O)C(C)(C)C)CC3)nc1-2` returned an inhibition of 70%. Besides, the values for the Ki in test [3] and in test [4] were 6.39 µM and greater than 40 µM, respectively. In addition, the maximal effect (Emax) was 100% in [5] and 49% in [7]. The result in test [6] was inactive.

`COc1ccc2c(c1)OC(C)(C)c1cn(CCN3CCN(C(=O)c4ccco4)CC3)nc1-2` yielded an inhibition in [2] of 70%. Moreover, the Ki in test [3] is 0.698 µM; in test [4], greater than 40 µM. The results for the Emax in [5] and in test [7] were 106% and 43%, respectively. Moreover, the outcome in test [6] was inactive.

Regarding `COc1ccc2c(c1)OC(C)(C)c1cnn(CNC(=O)CN3CCN(c4cccc(C)c4C)CC3)c1-2`, the Ki in test [3] and in test [4] was greater than 40 µM in each case. In addition, in test [9], the result was inactive.

Regarding `COc1ccc2c(c1)OC(C)(C)c1cn(CCN3CCN(C(=O)C4CCCO4)CC3)nc1-2` (stereo not drawn), in test [2], the inhibition stood at 70%. Also, the inhibition constant Ki in [3] was 1.07 µM; in test [4], greater than 40 µM. The EC50 in [11] was 0.0004 µM. Moreover, the maximum response (Emax) in test [5] was 102%; in test [7], 51%. The outcome in [6] was inactive.

Compound `COc1ccc2c(c1)OC(C)(C)c1cn(CNC(=O)CN3CCN(c4ccccc4)CC3)nc1-2` showed an inhibition in test [2] of 70%. The Emax in [8] is less than 25%; in [5], 94%. For the same compound, the Ki in test [3] was 1.58 µM; in test [4], greater than 40 µM. Besides, the result in test [6] and in test [9] was inactive.

Turning to `COc1ccc2c(c1)OC(C)(C)c1cnn(CCN3CCN(C(=O)c4cccs4)CC3)c1-2`, the Emax in test [8] is less than 25%; in test [5], 99%. Also, the inhibition constant (Ki) in [4] was greater than 40 µM. Further, the result in test [6] was inactive.

As to `COc1ccc2c(c1)OC(C)(C)c1cn(CNC(=O)CN3CCN(c4ccccc4OC)CC3)nc1-2`, the Ki in test [3] and in [4] was greater than 40 µM in each case. In addition, the half-maximal effective concentration (EC50) in test [11] stood at 0.00636 µM. Moreover, the Emax was 90% in test [5] and 51% in test [7]. Also, in test [6], the result was inactive.

With `COc1ccc2c(c1)OC(C)(C)c1cn(CCN3CCN(C(=O)COc4ccccc4)CC3)nc1-2`, the inhibition constant Ki in [3] and in [4] was greater than 40 µM throughout. The figures for the Emax in test [5] and in [7] were 100% and 52%, respectively. In addition, in [6], the outcome was inactive.

These data come from ChEMBL document CHEMBL3779839, “Identification of Novel GPR55 Modulators Using Cell-Impedance-Based Label-Free Technology” (J Med Chem, 2016).
